# According to patent US11168055B2, “Endocyclic thiamidinoamide-arylamide compound and use thereof for treating hepatitis B” (SHANGHAI LONGWOOD BIOPHARMACEUTICALS CO., LTD., priority 2017, dated 2021):
# Like-named read-outs stand apart in the source and are kept apart here.
# Columns and labels:
# [1] = system: HBV DNA in the supernatant of HepG2.2.15; test: Determination of anti-HBV activity in HepG2.2.15 cell (HBV DNA in supernatant by qPCR); type: cell-based, Hepatitis B virus; settings: HBV DNA, read-out: Experiment 2 Cell experiment EC50
# HepG2 cells = test: Determination of cytotoxicity (HepG2 cells, resazurin assay, 4 days); type: cell-based; settings: read-out: Experiment 3 Cytotoxicity CC50
# Protocol: Experiment 3: Determination of Cytotoxicity
# The cytotoxicity of the test compound was tested using HepG2 cells. The cells were incubated for 4 days in the presence of the test compound. Cell activity was assessed using the resazurin assay.
Structure (SMILES),EC50 ([1]; HepG2.2.15 cells) [nM],CC50 (HepG2 cells) [nM],"EC50 ([1]; Hepatitis B virus, HepG2.2.15, HepG2.2.15 cells) [nM]"
"CC(C)[C@H]1CCc2c(cn(C)c2C(=O)Nc2cc(F)c(F)c(F)c2)S(=N)(=O)N1 (single isomer, unassigned) [Compound 20c2]",0.1 to 100,> 30000,
"CC[C@H](C)[C@H]1C=Cc2c(cn(C)c2C(=O)Nc2ccc(F)c(C#N)c2)S(=N)(=O)N1 (single isomer, unassigned) [Compound 10o2]",0.1 to 100,> 30000,
"CC(O)[C@H]1C=Cc2c(cn(C)c2C(=O)Nc2ccc(F)c(F)c2)S(=N)(=O)N1 (single isomer, unassigned) [Compound 30a2]",100 to 1000,> 30000,
"CC(C)C[C@H]1C=Cc2c(cn(C)c2C(=O)Nc2cc(F)nc(C#N)c2)S(=N)(=O)N1 (single isomer, unassigned) [Compound 10w2]",0.1 to 100,> 30000,
"CC(C)[C@H]1CCc2c(nn(C)c2C(=O)Nc2ccc(F)c(C#N)c2)S(=N)(=O)N1 (single isomer, unassigned) [Compound 80a2]",0.1 to 100,> 30000,
"C[C@@H](OCc1ccccc1)[C@H]1CCc2c(cn(C)c2C(=O)Nc2ccc(F)c(C#N)c2)S(=N)(=O)N1 (single isomer, unassigned) [Compound 20ccc2]",0.1 to 100,> 30000,
"CC(C)[C@H]1C=Cc2c(cn(C)c2C(=O)Nc2cc(F)c(F)c(F)c2)S(=N)(=O)N1 (single isomer, unassigned) [Compound 10c2]",0.1 to 100,> 30000,
"CC(C)C[C@H]1C=Cc2c(cn(C)c2C(=O)Nc2ccc(F)c(C#N)c2)S(=O)(=NC2CC2)N1 (single isomer, unassigned) [Compound 50v2]",0.1 to 100,> 30000,
"CC(C)C[C@H]1C=Cc2c(cn(C)c2C(=O)Nc2ccc(F)c(C#N)c2)S(=O)(=NC(C)C)N1 (single isomer, unassigned) [Compound 50u2]",0.1 to 100,> 30000,
"C[C@@H](OCc1ccccc1)[C@H]1C=Cc2c(cn(C)c2C(=O)Nc2ccc(F)c(C#N)c2)S(=N)(=O)N1 (single isomer, unassigned) [Compound 10ccc2]",0.1 to 100,> 30000,
"CCN=S1(=O)N[C@@H](CC(C)C)CCc2c1cn(C)c2C(=O)Nc1ccc(F)c(C#N)c1 (single isomer, unassigned) [Compound 60w2]",0.1 to 100,> 30000,
"C[C@@H](OCc1ccccc1)[C@H]1C=Cc2c(cn(C)c2C(=O)Nc2cc(F)c(F)c(F)c2)S(=N)(=O)N1 (single isomer, unassigned) [Compound 10ddd2]",0.1 to 100,> 30000,
"Cn1cc2c(c1C(=O)Nc1ccc(F)c(F)c1)C=C[C@H](C1CCCCC1)NS2(=N)=O (single isomer, unassigned) [Compound 10bb2]",0.1 to 100,> 30000,
"CC(C)[C@H]1CCc2c(cn(C)c2C(=O)Nc2ccc(F)c(C#N)c2)S(=N)(=O)N1 (single isomer, unassigned) [Compound 20b2]",0.1 to 100,> 30000,
"CC(C)C[C@H]1CCc2c(cn(C)c2C(=O)Nc2ccc(F)c(C#N)c2)S(=O)(=NC2CC2)N1 (single isomer, unassigned) [Compound 60y2]",0.1 to 100,> 30000,
"CC(C)[C@H]1CCc2c(cn(C)c2C(=O)Nc2ccc(F)c(F)c2)S(=N)(=O)N1 (single isomer, unassigned) [Compound 20a2]",0.1 to 100,> 30000,
"CC(C)[C@H]1C=Cc2c(cn(C)c2C(=O)Nc2ccc(F)c(F)c2)S(=N)(=O)N1 (single isomer, unassigned) [Compound 10a2]",0.1 to 100,> 30000,
"CN=S1(=O)N[C@@H](C(C)C)C=Cc2c1cn(C)c2C(=O)Nc1ccc(F)c(F)c1 (single isomer, unassigned) [Compound 50a2]",0.1 to 100,> 30000,
"CC(O)[C@H]1CCc2c(cn(C)c2C(=O)Nc2ccc(F)c(F)c2)S(=N)(=O)N1 (single isomer, unassigned) [Compound 40a2]",100 to 1000,> 30000,
"CN=S1(=O)N[C@@H](CC(C)C)CCc2c1cn(C)c2C(=O)Nc1ccc(F)c(C#N)c1 (single isomer, unassigned) [Compound 60v2]",0.1 to 100,> 30000,
"COc1ccc(CC[C@H](C)[C@H]2C=Cc3c(cn(C)c3C(=O)Nc3cc(F)nc(C#N)c3)S(=N)(=O)N2)cc1 (single isomer, unassigned) [Compound 10vvv2]",0.1 to 100,> 30000,
"CC(O)[C@H]1C=Cc2c(cn(C)c2C(=O)Nc2ccc(F)c(C#N)c2)S(=N)(=O)N1 (single isomer, unassigned) [Compound 30b2]",100 to 1000,> 30000,
"Cn1cc2c(c1C(=O)Nc1ccc(F)c(F)c1)C=C[C@H](CO)NS2(=N)=O (single isomer, unassigned) [Compound 30g2]",100 to 1000,> 30000,

Structure (SMILES),EC50 ([1]; HepG2.2.15 cells) [nM],CC50 (HepG2 cells) [nM],"EC50 ([1]; Hepatitis B virus, HepG2.2.15, HepG2.2.15 cells) [nM]"
"Cn1cc2c(c1C(=O)Nc1ccc(F)c(C#N)c1)C=C[C@H](C1CCCCC1)NS2(=N)=O (single isomer, unassigned) [Compound 10cc2]",0.1 to 100,> 30000,
"CN=S1(=O)N[C@@H](C(C)C)CCc2c1nn(C)c2C(=O)Nc1ccc(F)c(C#N)c1 (single isomer, unassigned) [Compound 90a2]",0.1 to 100,> 30000,
"CC(C)C[C@H]1CCc2c(nn(C)c2C(=O)Nc2ccc(F)c(C#N)c2)S(=N)(=O)N1 (single isomer, unassigned) [Compound 80b2]",0.1 to 100,> 30000,
"CC[C@H](C)[C@H]1C=Cc2c(cn(C)c2C(=O)Nc2ccc(F)c(F)c2)S(=N)(=O)N1 (single isomer, unassigned) [Compound 10n2]",0.1 to 100,> 30000,
"CC(C)[C@@H]1C=Cc2c(cn(C)c2C(=O)Nc2ccc(F)c(F)c2)S(=N)(=O)N1 (single isomer, unassigned) [Compound 10g2]",0.1 to 100,> 30000,
"Cn1cc2c(c1C(=O)Nc1cc(F)nc(C#N)c1)CC[C@H](C1CCCCC1)NS2(=N)=O (single isomer, unassigned) [Compound 20dd2]",0.1 to 100,> 30000,
"CCN=S1(=O)N[C@@H](CC(C)C)C=Cc2c1cn(C)c2C(=O)Nc1ccc(F)c(C#N)c1 (single isomer, unassigned) [Compound 50t2]",0.1 to 100,> 30000,
"CC(O)[C@H]1CCc2c(cn(C)c2C(=O)Nc2ccc(F)c(C#N)c2)S(=N)(=O)N1 (single isomer, unassigned) [Compound 40b2]",100 to 1000,> 30000,
"CN=S1(=O)N[C@@H](CC(C)C)CCc2c1nn(C)c2C(=O)Nc1ccc(F)c(C#N)c1 (single isomer, unassigned) [Compound 90b2]",0.1 to 100,> 30000,
"CC(C)[C@H]1C=Cc2c(nn(C)c2C(=O)Nc2ccc(F)c(C#N)c2)S(=N)(=O)N1 (single isomer, unassigned) [Compound 70a2]",0.1 to 100,> 30000,
"CC(C)C[C@H]1C=Cc2c(nn(C)c2C(=O)Nc2ccc(F)c(C#N)c2)S(=N)(=O)N1 (single isomer, unassigned) [Compound 70b2]",0.1 to 100,> 30000,
"CC(C)[C@H]1C=Cc2c(cn(C)c2C(=O)Nc2ccnc(C(F)F)c2)S(=N)(=O)N1 (single isomer, unassigned) [Compound 10f2]",0.1 to 100,> 30000,
"CC(C)[C@@H]1C=Cc2c(cn(C)c2C(=O)Nc2ccc(F)c(C#N)c2)S(=N)(=O)N1 (single isomer, unassigned) [Compound 10h2]",> 1000,> 30000,
"Cn1cc2c(c1C(=O)Nc1ccnc(C(F)F)c1)CC[C@H](C1CCCCC1)NS2(=N)=O (single isomer, unassigned) [Compound 20ee2]",0.1 to 100,> 30000,
"CCN=S1(=O)N[C@@H](C(C)C)CCc2c1cn(C)c2C(=O)Nc1ccc(F)c(C#N)c1 (single isomer, unassigned) [Compound 60g2]",0.1 to 100,> 30000,
"CC(C)[C@H]1C=Cc2c(cn(C)c2C(=O)Nc2ccc(F)c(C#N)c2)S(=N)(=O)N1 (single isomer, unassigned) [Compound 10b2]",,> 30000,0.1 to 100
"CC(C)C[C@H]1CCc2c(cn(C)c2C(=O)Nc2ccc(F)c(C#N)c2)S(=O)(=NC(C)C)N1 (single isomer, unassigned) [Compound 60x2]",0.1 to 100,> 30000,
"CC(C)[C@H]1C=Cc2c(cn(C)c2C(=O)Nc2cc(F)nc(C#N)c2)S(=N)(=O)N1 (single isomer, unassigned) [Compound 10e2]",0.1 to 100,> 30000,
"CN=S1(=O)N[C@@H](C(C)C)CCc2c1cn(C)c2C(=O)Nc1ccc(F)c(F)c1 (single isomer, unassigned) [Compound 60a2]",0.1 to 100,> 30000,
"CN=S1(=O)N[C@@H](CC(C)C)C=Cc2c1cn(C)c2C(=O)Nc1ccc(F)c(C#N)c1 (single isomer, unassigned) [Compound 50s2]",0.1 to 100,> 30000,
"Cn1cc2c(c1C(=O)Nc1ccc(F)c(F)c1)CC[C@H](CO)NS2(=N)=O (single isomer, unassigned) [Compound 40g2]",100 to 1000,> 30000,
"CC(O)[C@H]1C=Cc2c(cn(C)c2C(=O)Nc2cc(F)c(F)c(F)c2)S(=N)(=O)N1 (single isomer, unassigned) [Compound 30c2]",100 to 1000,> 30000,
"COc1ccc(CC[C@H](C)[C@H]2CCc3c(cn(C)c3C(=O)Nc3cc(F)c(F)c(F)c3)S(=N)(=O)N2)cc1 (single isomer, unassigned) [Compound 20ttt2]",0.1 to 100,> 30000,
